Among the data in BindingDB's records for doi:10.1016/j.bmcl.2011.01.024 (Amira Pharmaceuticals, 2011) are IC50 values, retold here.

pIC50: −log10 of the molar value.

The assay can be described thus: Inhibition of human prostanoid DP2 receptor in human whole bood assessed as eosinophil shape change preincubated for 15 mins before addition of PGD2 measured after 5 mins by FACS analysis. (In general: In flow cytometry, cells or beads pass a laser one at a time.)
On to `CCN(Cc1cc(C(F)(F)F)ccc1-c1cc(CC(=O)O)ccc1OC)C(=O)OCc1ccc(Cl)cc1`, for which the negative logarithm of the IC50 (pIC50) is 8.22.
To `COC(=O)N(Cc1ccccc1)Cc1cc(C(F)(F)F)ccc1-c1cc(CC(=O)O)ccc1OC` belongs 7.66; to `CCN(Cc1cc(C(F)(F)F)ccc1-c1cc(CC(=O)O)ccc1OC)C(=O)OC`, 8.10.
As to `COC(=O)N(CCc1ccccc1)Cc1cc(C(F)(F)F)ccc1-c1cc(CC(=O)O)ccc1OC`, the negative-log IC50 (pIC50) was 7.47.
For the molecule `COc1ccc(CC(=O)O)cc1-c1ccc(C(F)(F)F)cc1CNC(=O)OCc1ccccc1`, the pIC50 was 6.15.
For the molecule `COc1ccc(CC(=O)O)cc1-c1ccc(C(F)(F)F)cc1CN(C)C(=O)OCc1ccccc1`, the negative logarithm of the IC50 (pIC50) was 8.05.
Regarding `CCN(Cc1cc(C(F)(F)F)ccc1-c1cc(CC(=O)O)ccc1OC)C(=O)OCc1ccccc1Cl`, the negative-log IC50 (pIC50) was 8.15.
Turning to `CCN(Cc1cc(C(F)(F)F)ccc1-c1cc(CC(=O)O)ccc1OC)C(=O)OCc1cccc(Cl)c1`, the pIC50 was 8.15.
With `CCN(Cc1cc(C(F)(F)F)ccc1-c1cc(CC(=O)O)ccc1OC)C(=O)OCc1cc(F)cc(F)c1` the figure was 8.30.

The term pIC50 denotes −log10 of the IC50, conventionally taken in molar units.
